Results taken from ChEMBL document CHEMBL4706555, “Synthesis of biphenyl oxazole derivatives via Suzuki coupling and biological evaluations as nucleotide pyrophosphatase/phosphodiesterase-1 and -3 inhibitors” (Eur J Med Chem, 2020).
pIC50: −log10 of the molar value.

Legend:
[1] = biological target: Ectonucleotide pyrophosphatase/phosphodiesterase family member 3 (Homo sapiens) (UniProt O14638); assay: Inhibition of human recombinant NPP3 expressed in COS-7 cell membrane using p-nitrophenyl thymidine monophosphate substrate incubated for 35 mins by spectrophotometric analysis; parameters: concentration or dose not given beside the values
[2] = biological target: T1, Ectonucleotide pyrophosphatase/phosphodiesterase family member 1 (Homo sapiens) (UniProt P22413); assay: Inhibition of human recombinant NPP1 expressed in COS-7 cell membrane using p-nitrophenyl thymidine monophosphate substrate incubated for 35 mins by spectrophotometric analysis; assay type: cell membranes; parameters: concentration or dose not given beside the values
T1 sequence (whole entry): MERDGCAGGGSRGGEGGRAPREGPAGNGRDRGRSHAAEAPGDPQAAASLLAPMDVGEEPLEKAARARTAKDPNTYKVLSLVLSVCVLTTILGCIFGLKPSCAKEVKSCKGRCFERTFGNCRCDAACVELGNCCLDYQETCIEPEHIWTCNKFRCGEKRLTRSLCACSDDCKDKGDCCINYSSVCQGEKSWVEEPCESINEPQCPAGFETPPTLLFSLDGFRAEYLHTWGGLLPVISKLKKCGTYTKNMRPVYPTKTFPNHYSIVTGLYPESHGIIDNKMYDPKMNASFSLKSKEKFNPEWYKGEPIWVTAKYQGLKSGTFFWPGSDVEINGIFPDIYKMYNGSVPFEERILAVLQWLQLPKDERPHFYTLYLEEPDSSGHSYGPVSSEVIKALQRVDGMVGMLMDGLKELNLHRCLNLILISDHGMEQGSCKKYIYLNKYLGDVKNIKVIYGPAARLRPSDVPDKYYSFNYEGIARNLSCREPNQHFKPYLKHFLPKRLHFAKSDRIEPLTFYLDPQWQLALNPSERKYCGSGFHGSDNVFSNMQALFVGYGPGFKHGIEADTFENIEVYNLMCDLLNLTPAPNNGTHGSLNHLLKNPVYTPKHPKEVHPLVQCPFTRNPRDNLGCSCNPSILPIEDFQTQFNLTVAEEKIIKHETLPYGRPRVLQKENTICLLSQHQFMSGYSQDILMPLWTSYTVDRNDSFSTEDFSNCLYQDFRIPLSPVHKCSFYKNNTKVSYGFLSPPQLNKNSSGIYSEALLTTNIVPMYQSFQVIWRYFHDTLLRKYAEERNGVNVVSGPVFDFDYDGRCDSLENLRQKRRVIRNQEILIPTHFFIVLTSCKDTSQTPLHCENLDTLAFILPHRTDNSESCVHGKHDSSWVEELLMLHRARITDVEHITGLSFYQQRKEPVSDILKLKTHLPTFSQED

[3] = biological target: T2, Ectonucleotide pyrophosphatase/phosphodiesterase family member 3 (Homo sapiens, UniProt O14638); assay: Inhibition of human recombinant NPP3 expressed in COS-7 cell membrane […] using p-nitrophenyl thymidine monophosphate substrate incubated for 35 mins by spectrophotometric analysis; assay type: cell membranes
T2 sequence (O14638 whole entry): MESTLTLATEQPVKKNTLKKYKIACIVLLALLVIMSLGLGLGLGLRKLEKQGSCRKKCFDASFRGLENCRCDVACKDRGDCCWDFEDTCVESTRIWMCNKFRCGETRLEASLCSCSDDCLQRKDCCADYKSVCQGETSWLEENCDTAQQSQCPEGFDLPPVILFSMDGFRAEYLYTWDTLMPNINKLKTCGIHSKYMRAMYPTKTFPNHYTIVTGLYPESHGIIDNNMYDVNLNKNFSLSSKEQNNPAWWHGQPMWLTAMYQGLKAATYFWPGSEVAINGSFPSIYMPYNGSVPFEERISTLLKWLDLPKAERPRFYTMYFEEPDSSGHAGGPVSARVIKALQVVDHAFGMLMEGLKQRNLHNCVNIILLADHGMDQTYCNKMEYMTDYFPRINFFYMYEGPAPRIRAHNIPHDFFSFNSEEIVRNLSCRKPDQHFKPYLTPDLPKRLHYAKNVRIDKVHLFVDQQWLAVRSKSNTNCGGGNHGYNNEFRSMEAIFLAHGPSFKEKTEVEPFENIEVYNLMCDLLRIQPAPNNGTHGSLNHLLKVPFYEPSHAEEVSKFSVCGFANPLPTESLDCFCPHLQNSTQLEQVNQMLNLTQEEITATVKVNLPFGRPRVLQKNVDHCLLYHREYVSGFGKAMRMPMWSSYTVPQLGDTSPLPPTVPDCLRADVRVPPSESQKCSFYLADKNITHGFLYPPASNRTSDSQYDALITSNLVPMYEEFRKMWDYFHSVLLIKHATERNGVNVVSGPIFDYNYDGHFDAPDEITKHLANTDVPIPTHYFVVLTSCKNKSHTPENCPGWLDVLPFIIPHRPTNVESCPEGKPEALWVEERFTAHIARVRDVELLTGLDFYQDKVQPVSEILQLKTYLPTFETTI

[4] = biological target: T3, Ectonucleotide pyrophosphatase/phosphodiesterase family member 1 (Homo sapiens, UniProt P22413); assay: Inhibition of human recombinant NPP1 expressed in COS-7 cell membrane […] using p-nitrophenyl thymidine monophosphate substrate incubated for 35 mins by spectrophotometric analysis; assay type: cell membranes
T3 sequence (P22413 whole entry): T1 sequence (whole entry)

[5] = biological target: T4, Ectonucleotide pyrophosphatase/phosphodiesterase family member 3 (Homo sapiens) (UniProt O14638); assay: Potency index, ratio of IC50 for suramin to IC50 for test compound for human recombinant NPP3 expressed in COS-7 cell membrane using p-nitrophenyl thymidine monophosphate substrate incubated for 35 mins by spectrophotometric analysis; assay type: cell membranes
T4 sequence (whole entry): T2 sequence (O14638 whole entry)

[6] = biological target: T1, Ectonucleotide pyrophosphatase/phosphodiesterase family member 1 (Homo sapiens); assay: Potency index, ratio of IC50 for suramin to IC50 for test compound for human recombinant NPP1 expressed in COS-7 cell membrane using p-nitrophenyl thymidine monophosphate substrate incubated for 35 mins by spectrophotometric analysis; assay type: cell membranes

| SMILES | inhibition [1] | inhibition [2] | pIC50 [3] | pIC50 [4] | other results |
| --- | --- | --- | --- | --- | --- |
| c1ccc(-c2nc(-c3ccc(-c4cccc5ccccc45)cc3)co2)cc1 | 43% | 44% |  |  |  |
| CCOc1ccccc1-c1nc(-c2ccc(-c3ccccc3)cc2)co1 | 48% | 27% |  |  |  |
| c1ccc(-c2ccc(-c3coc(-c4ccccc4)n3)cc2)cc1 | 49% | 31% |  |  |  |
| CCOc1ccccc1-c1nc(-c2ccc(-c3cccc4ccccc34)cc2)co1 | 40% |  |  | 6.82 | Ratio IC50 [6]: 51.8 |
| Cc1cccc(-c2ccc(-c3coc(-c4ccccc4)n3)cc2)c1 |  | 48% |  |  |  |
| Cc1cccc(-c2ccc(-c3coc(-c4ccccc4-c4cccc(C)c4)n3)cc2)c1 |  | 36% | 5.66 |  |  |
| COc1ccc(-c2ccc(-c3coc(-c4ccccc4)n3)cc2)cc1 |  |  | 5.43 | 4.76 |  |
| c1ccc(-c2ccc(-c3coc(-c4ccccc4-c4ccccc4)n3)cc2)cc1 | 47% | 33% |  |  |  |

The next lines start with results.

| inhibition [1] | inhibition [2] | pIC50 [3] | pIC50 [4] | SMILES | other results |
| --- | --- | --- | --- | --- | --- |
|  |  | 4.95 | 5.03 | CCOc1ccccc1-c1nc(-c2ccc(-c3ccc(C)cc3)cc2)co1 |  |
|  | 38% | 6.77 |  | COc1ccc(-c2ccc(-c3coc(C)n3)cc2)cc1 | Ratio IC50 [5]: 5.3 |
| 45% | 40% |  |  | Cc1nc(-c2ccc(-c3ccccc3C)cc2)co1 |  |
|  | 43% | 5.77 |  | Cc1cccc(-c2ccc(-c3coc(C)n3)cc2)c1 |  |
|  |  | 5.30 | 5.59 | Cc1ccc(-c2ccc(-c3coc(C)n3)cc2)cc1 |  |
|  |  | 5.37 | 6.38 | Cc1ccccc1-c1ccc(-c2coc(-c3ccccc3)n2)cc1 |  |
| 43% | 46% |  |  | Cc1nc(-c2ccc(-c3ccccc3)cc2)co1 |  |
|  |  | 6.82 | 5.62 | Cc1nc(-c2ccc(-c3cccc4ccccc34)cc2)co1 |  |
|  |  | 5.88 | 5.84 | Cc1nc(-c2ccc(-c3ccc(OCc4ccccc4)cc3)cc2)co1 |  |
